Assays:
Format in all cases: in vivo
Brassica campestris L. = test: Test Example 4: effect on crop by application to foliage (diluvial soil, plastic box); conditions: application to foliage, application herbicide amount 320 g/ha
In short: (§1)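 Emulsion-formulated compound, diluted to a predetermined g/ha dose, applied by small sprayer to leaves and stems of 14-day-old seedlings grown in sterilized diluvial soil. Effect rated on 0–5 herbicidal-ratio scale three weeks on.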

Triticum aestivum = test: as above; conditions: application to foliage, application herbicide amount 320 g/ha
In short: as §1

[1] = test system: Beta vulgaris ssp. vulgaris; test: as above; conditions: application to foliage, application herbicide amount 320 g/ha
In short: as §1

Zea mays = test: as above; conditions: application to foliage, application herbicide amount 320 g/ha
In short: as §1

[2] = test system: directly sowed Oryza sativa; test: as above; conditions: application to foliage, application herbicide amount 320 g/ha
In short: as §1

Glycine max = test: as above; conditions: application to foliage, application herbicide amount 320 g/ha
In short: as §1

[3] = test system: Echinochloa crus-galli var. crus-galli; test: Test Example 3: herbicidal effect by application to foliage (Wagner pot, water depth 0.1-0.5 cm); conditions: Nineteenth Table; application herbicide amount 320 g/ha
In short: (§2)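 A small sprayer delivered the diluted emulsion uniformly to foliage at the chosen rate in g/ha, 14 days after sowing in Wagner pots held at 25–30 °C. Outcome: 0–5 herbicidal-ratio score read three weeks post-treatment.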

Leptochloa chinensis = test: as above; conditions: Nineteenth Table; application herbicide amount 320 g/ha
In short: as §2

Cyperus difformis = test: as above; conditions: Nineteenth Table; application herbicide amount 320 g/ha
In short: as §2

[4] = test system: directly sowed Oryza sativa; test: Test Example 3: effect on crop by application to foliage (Wagner pot, water depth 0.1-0.5 cm); conditions: Nineteenth Table; application herbicide amount 320 g/ha
In short: as §2

[5] = test system: Echinochloa crus-galli var. crus-galli; test: Test Example 4: herbicidal effect by application to foliage (diluvial soil, plastic box); conditions: application to foliage, application herbicide amount 320 g/ha
In short: as §1

Amaranthus retroflexus = test: as above; conditions: application to foliage, application herbicide amount 320 g/ha
In short: as §1

Apera spica-venti. = test: as above; conditions: application to foliage, application herbicide amount 320 g/ha
In short: as §1

Chenopodium album = test: as above; conditions: application to foliage, application herbicide amount 320 g/ha
In short: as §1

Abutilon theophrasti = test: as above; conditions: application to foliage, application herbicide amount 320 g/ha
In short: as §1

Avena fatua = test: as above; conditions: application to foliage, application herbicide amount 320 g/ha
In short: as §1

Stellaria media = test: as above; conditions: application to foliage, application herbicide amount 320 g/ha
In short: as §1

Veronica persica = test: as above; conditions: application to foliage, application herbicide amount 320 g/ha
In short: as §1

Galium spurium = test: as above; conditions: application to foliage, application herbicide amount 320 g/ha
In short: as §1

Alopecurus myosuroides = test: as above; conditions: application to foliage, application herbicide amount 320 g/ha
In short: as §1

Setaria viridis = test: as above; conditions: application to foliage, application herbicide amount 320 g/ha
In short: as §1

Digitaria ciliaris = test: as above; conditions: application to foliage, application herbicide amount 320 g/ha
In short: as §1

Lolium multiflorum Lam. = test: as above; conditions: application to foliage, application herbicide amount 320 g/ha
In short: as §1

SMILES	g (Brassica campestris L.) effect on crop (Brassica campestris L.)	e (Triticum aestivum) effect on crop (Triticum aestivum)	f (Beta vulgaris ssp. vulgaris) effect on crop [1]	b (Zea mays) effect on crop (Zea mays)	d (directly sowed Oryza sativa) effect on crop [2]	c (Glycine max) effect on crop (Glycine max)	H (Echinochloa crus-galli var. crus-galli) herbicidal ratio grade [3]	D (Leptochloa chinensis) herbicidal ratio grade (Leptochloa chinensis)	E (Cyperus difformis) herbicidal ratio grade (Cyperus difformis)	b (directly sowed Oryza sativa) effect on crop grade [4]	H (Echinochloa crus-galli var. crus-galli) herbicidal effect [5]	N (Amaranthus retroflexus) herbicidal effect (Amaranthus retroflexus)	L (Apera spica-venti.) herbicidal effect (Apera spica-venti.)	O (Chenopodium album) herbicidal effect (Chenopodium album)	M (Abutilon theophrasti) herbicidal effect (Abutilon theophrasti)	I (Avena fatua) herbicidal effect (Avena fatua)	P (Stellaria media) herbicidal effect (Stellaria media)	R (Veronica persica) herbicidal effect (Veronica persica)	Q (Galium spurium) herbicidal effect (Galium spurium)	J (Alopecurus myosuroides) herbicidal effect (Alopecurus myosuroides)	other results
Cc1nnc(NC(=O)c2ccc(C(F)(F)F)n3c(COc4ccccc4)nnc23)o1 [1-025]	2 (Herbicidal ratio of 20% or more and less than 40%)	0 (Herbicidal ratio of 5% or less (almost no effect))	5 (Herbicidal ratio of 90% or more (almost completely withered))	0 (Herbicidal ratio of 5% or less (almost no effect))	3 (Herbicidal ratio of 40% or more and less than 70%)	0 (Herbicidal ratio of 5% or less (almost no effect))	4 (Herbicidal ratio of 70% or more and less than 90%)	3 (Herbicidal ratio of 40% or more and less than 70%)	2 (Herbicidal ratio of 20% or more and less than 40%)	2 (Herbicidal ratio of 20% or more and less than 40%)	4 (Herbicidal ratio of 70% or more and less than 90%)	3 (Herbicidal ratio of 40% or more and less than 70%)	0 (Herbicidal ratio of 5% or less (almost no effect))	5 (Herbicidal ratio of 90% or more (almost completely withered))	5 (Herbicidal ratio of 90% or more (almost completely withered))	0 (Herbicidal ratio of 5% or less (almost no effect))	4 (Herbicidal ratio of 70% or more and less than 90%)	3 (Herbicidal ratio of 40% or more and less than 70%)	3 (Herbicidal ratio of 40% or more and less than 70%)	0 (Herbicidal ratio of 5% or less (almost no effect))	G (Setaria viridis) herbicidal effect (Setaria viridis): 2 (Herbicidal ratio of 20% or more and less than 40%); F (Digitaria ciliaris) herbicidal effect (Digitaria ciliaris): 3 (Herbicidal ratio of 40% or more and less than 70%); K (Lolium multiflorum Lam.) herbicidal effect (Lolium multiflorum Lam.): 0 (Herbicidal ratio of 5% or less (almost no effect))
Cc1nnc(NC(=O)c2ccc(C(F)(F)F)n3c(CS(=O)(=O)CC(F)(F)F)nnc23)o1 [1-039]	0 (Herbicidal ratio of 5% or less (almost no effect))	0 (Herbicidal ratio of 5% or less (almost no effect))	2 (Herbicidal ratio of 20% or more and less than 40%)	0 (Herbicidal ratio of 5% or less (almost no effect))	0 (Herbicidal ratio of 5% or less (almost no effect))	0 (Herbicidal ratio of 5% or less (almost no effect))	3 (Herbicidal ratio of 40% or more and less than 70%)	3 (Herbicidal ratio of 40% or more and less than 70%)	3 (Herbicidal ratio of 40% or more and less than 70%)	2 (Herbicidal ratio of 20% or more and less than 40%)	4 (Herbicidal ratio of 70% or more and less than 90%)	1 (Herbicidal ratio of 5% or more and less than 20%)	0 (Herbicidal ratio of 5% or less (almost no effect))	4 (Herbicidal ratio of 70% or more and less than 90%)	0 (Herbicidal ratio of 5% or less (almost no effect))	0 (Herbicidal ratio of 5% or less (almost no effect))	0 (Herbicidal ratio of 5% or less (almost no effect))	0 (Herbicidal ratio of 5% or less (almost no effect))	0 (Herbicidal ratio of 5% or less (almost no effect))	0 (Herbicidal ratio of 5% or less (almost no effect))	G (Setaria viridis) herbicidal effect (Setaria viridis): 0 (Herbicidal ratio of 5% or less (almost no effect)); F (Digitaria ciliaris) herbicidal effect (Digitaria ciliaris): 2 (Herbicidal ratio of 20% or more and less than 40%); K (Lolium multiflorum Lam.) herbicidal effect (Lolium multiflorum Lam.): 0 (Herbicidal ratio of 5% or less (almost no effect))

— patent US9708314B2, “Heterocyclic amide compound” (NISSAN CHEMICAL INDUSTRIES, LTD., priority 2013, dated 2017)
